Test [1] has as its target T1, MASP-2 (Homo sapiens, UniProt O00187). The note with it: known from Presanis et al. Mol. Immunol. 2003; cited from earlier work.
Target sequence in this assay (O00187 16-686): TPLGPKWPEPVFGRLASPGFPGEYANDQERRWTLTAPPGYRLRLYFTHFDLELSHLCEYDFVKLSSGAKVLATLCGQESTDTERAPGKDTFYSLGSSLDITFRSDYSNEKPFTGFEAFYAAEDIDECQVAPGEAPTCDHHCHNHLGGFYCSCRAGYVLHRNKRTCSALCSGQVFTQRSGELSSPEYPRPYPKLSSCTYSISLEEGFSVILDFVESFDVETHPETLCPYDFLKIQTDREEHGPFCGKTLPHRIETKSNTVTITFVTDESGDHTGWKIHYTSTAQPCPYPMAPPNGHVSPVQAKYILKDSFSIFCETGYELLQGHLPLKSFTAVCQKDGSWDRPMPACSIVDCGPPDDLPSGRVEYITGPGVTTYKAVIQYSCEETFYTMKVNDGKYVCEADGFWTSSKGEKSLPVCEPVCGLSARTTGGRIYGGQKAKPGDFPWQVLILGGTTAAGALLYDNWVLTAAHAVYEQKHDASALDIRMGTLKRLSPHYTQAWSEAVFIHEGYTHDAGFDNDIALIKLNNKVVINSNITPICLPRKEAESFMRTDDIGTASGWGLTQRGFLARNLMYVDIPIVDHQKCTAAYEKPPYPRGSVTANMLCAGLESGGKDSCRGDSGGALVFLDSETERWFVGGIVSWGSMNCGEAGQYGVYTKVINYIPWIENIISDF
The target of a further test is T2, MASP-1 (Homo sapiens, UniProt P48740).
T2 sequence (P48740 20-699): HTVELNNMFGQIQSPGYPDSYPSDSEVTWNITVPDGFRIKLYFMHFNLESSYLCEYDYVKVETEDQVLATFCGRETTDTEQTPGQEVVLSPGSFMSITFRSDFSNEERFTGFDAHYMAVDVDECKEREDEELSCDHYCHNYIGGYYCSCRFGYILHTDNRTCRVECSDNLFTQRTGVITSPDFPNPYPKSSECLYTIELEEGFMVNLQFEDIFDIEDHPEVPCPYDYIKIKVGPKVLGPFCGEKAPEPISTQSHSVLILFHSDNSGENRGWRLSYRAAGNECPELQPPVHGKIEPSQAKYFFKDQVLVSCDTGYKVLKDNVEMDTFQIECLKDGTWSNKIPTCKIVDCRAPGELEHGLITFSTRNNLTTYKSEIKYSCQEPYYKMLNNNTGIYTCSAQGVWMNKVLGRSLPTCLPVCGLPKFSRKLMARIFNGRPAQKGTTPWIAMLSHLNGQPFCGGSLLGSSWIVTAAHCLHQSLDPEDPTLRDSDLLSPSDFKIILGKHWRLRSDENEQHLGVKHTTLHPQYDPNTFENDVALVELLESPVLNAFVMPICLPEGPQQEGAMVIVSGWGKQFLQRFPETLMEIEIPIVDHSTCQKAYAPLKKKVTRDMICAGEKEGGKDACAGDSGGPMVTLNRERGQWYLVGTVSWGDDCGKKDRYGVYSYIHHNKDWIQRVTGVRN
The note with it: known from Presanis et al. Mol. Immunol. 2003; cited from earlier work.

In the next test the test system is MBL-MASP complex. The test can be described thus: Effect of inhibitor on serum MASP activity (captured MBL-MASP complex, pro-urokinase detection). The format is biochemical. As to conditions: 0-1 μM BMpg vs DMSO control; human serum captured on mannan coated plate; wild-type pro-urokinase and pyro-Glu-Gly-Arg-pNA; 37° C., 2 h. The protocol:
MBL-MASP complexes were captured on a mannan coated plate as described in example 4. After capture, buffer, pro-urokinase and peptide substrate and boroMpg (0-1 μM final concentration) in DMSO, or an equivalent amount of pure DMSO (control) were added and activity was measured. All details were as described in example 4. Activity was expressed as ΔA^405/h^2×1000.
A mannan coated plate was used to capture MBL-MASP complex from diluted human serum. After washing, 100 μl buffer containing 0-1 μM Z-D-Phe-Pro-methoxypropylboroglycine-pinanediolester (BMpg or boroMpg) or buffer containing an identical volume of DMSO (solvent of boroMpg), 15 μl (50 μg/ml) wild-type pro-urokinase and 10 μl (6 mM) pyro-Glu-Gly-Arg-pNA were added. The plate was incubated at 37° C. and colour formation was followed for 2 h with a plate reader at 405 nm. Activities were expressed as ΔA/h^2×1000. All details are as described in Example 4. The results summarized in FIG. 9 show no effect of BMpg on activity of the captured MBL-MASP complex.

The target of test [2] is T1, MASP-2. The test is described as follows: Activity of recombinant MASP-2 on novel substrates. On the set-up: Recombinant MASP-2 (active form) at 600 μg/ml was serially diluted. The note with it: serially diluted recombinant MASP-2, 37° C., 2 h, A405. The format is biochemical. As for the experimental part: Various dilutions of purified recombinant MASP-2 were tested for their response with wild-type pro-urokinase based detection and substrate 2 (table 1) based detection. MASP-2 was diluted in buffer to which wt pro-urokinase or pro-urokinase derivative 2 was added followed by pyro-Glu-Gly-Arg-pNA. The plate was incubated for 2h and A^405 was measured (see example 5 for details).
The activity of purified recombinant MASP-2 on wt pro-urokinase and substrate 2 was investigated. Recombinant MASP-2 (active form) at 600 μg/ml was serially diluted in 50 mM Tris HCl pH7.6, 1.5 mM NaCl, 0.5 mM CaCl2, 1 μM ZnCl2, 0.01% (v/v) BRIJ35™. To wells of a microtiter plate 100 μl of MASP-2 dilution, 10 μof wt pro-urokinase at approximately 50 μg/ml) or 10 μl substrate 2 (at approximately 75 μg/ml) were added, followed by 10 μl of peptide substrate pyro Glu-Gly-Arg-pNA (at 6 mM). The plate was incubated at 37° C. and absorbance change at 405 nm was followed in time for 2 h.
Target sequence in this assay (O00187 16-444 limits assumed): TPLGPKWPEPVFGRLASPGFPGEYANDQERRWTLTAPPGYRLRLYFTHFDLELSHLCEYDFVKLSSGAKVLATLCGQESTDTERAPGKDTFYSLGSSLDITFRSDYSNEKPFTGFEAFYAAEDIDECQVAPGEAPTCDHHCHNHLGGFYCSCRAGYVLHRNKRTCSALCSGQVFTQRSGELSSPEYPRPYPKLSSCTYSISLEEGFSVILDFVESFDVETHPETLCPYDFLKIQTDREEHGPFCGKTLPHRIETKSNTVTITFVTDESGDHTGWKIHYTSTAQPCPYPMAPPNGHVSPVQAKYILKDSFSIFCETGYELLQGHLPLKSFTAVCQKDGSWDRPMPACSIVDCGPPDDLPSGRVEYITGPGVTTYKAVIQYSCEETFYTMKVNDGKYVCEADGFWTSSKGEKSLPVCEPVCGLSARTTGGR
Target sequence in this assay (O00187 445-686 limits assumed): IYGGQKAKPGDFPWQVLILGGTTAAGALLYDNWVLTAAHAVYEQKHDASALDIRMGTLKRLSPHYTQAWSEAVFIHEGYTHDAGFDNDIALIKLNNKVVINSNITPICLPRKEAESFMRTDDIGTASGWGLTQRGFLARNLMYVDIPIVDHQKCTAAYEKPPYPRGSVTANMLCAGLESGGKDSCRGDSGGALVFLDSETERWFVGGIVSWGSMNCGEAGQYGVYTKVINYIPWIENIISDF

For the next test, the system named is MBL-MASP complexes. The test can be described thus: Determination of MBL-MASP complexes in serum with pro-urokinase substrates. The format is biochemical, human. As to conditions: serum diluted 10-320 fold, mannan coated plate. The protocol:
A mannan-coated microtiter plate was used to bind and immobilize MBL-MASP complexes from heterozygous MBL-deficient serum (A/B genotype), homozygous MBL-deficient serum (B/B genotype) and normal serum (A/A genotype) in various dilutions. After washing, wild-type pro-urokinase or substrate 2 and chromogenic peptide pyro-Glu-Gly-Arg-pNA were added. The absorbance change at 405 nm was followed in time. The slopes of A405 versus time-squared graphs were taken as a measure of activity.
Based on the results of example 2 an assay for MBL-MASP complexes in serum was developed. Three different sera were used, serum […] MBL deficiency, serum (B/B) with an homozygous MBL deficiency and a normal serum (A/A). A microtiter plate was coated with mannan, washed and blocked as described in example 2.
Serum samples were diluted 10-320 fold in GVB++buffer (see example 2) and 100 μl of these dilutions were pipetted into wells of the coated microtiter plate. […]
To all wells 100 μl of detection buffer, 10 μl of either wild-type pro-urokinase or pro-urokinase derivative 2 at 7.6 μg/ml and 10 μl of pyro-Glu-Gly-Arg-pNA at 6 mM were added (see example 2). The plate was shaken and A^405 was followed in time with a microtiter plate reader. The slopes of the graphs of A^405 versus time squared were calculated and used as a measure of activity.

As for `COCCC[C@@H](NC(=O)[C@@H]1CCCN1C(=O)[C@@H](Cc1ccccc1)NC(=O)OCc1ccccc1)B1OC2C[C@@H]3C[C@@H](C3(C)C)[C@]2(C)O1` (stereo partly drawn) [BMpg, Z-D-Phe-Pro-methoxypropylboroglycine-pinanediolester], the “inhibition of MASP-2” value on MASP-2 [1] is “not MASP-2”. For the same compound, the “inhibition of MASP-1” value at MASP-1 was “inhibit MASP-1”. The “effect on activity of the captured MBL-MASP complex (ΔA/h^2×1000)” value in the test with MBL-MASP complex is “no effect”.

Consider “substrate 2: pro-urokinase mutant with activation site Asn-Leu-Thr-Arg-Ile-Val-Gly-Gly (SEQ ID NO:4) (NLTRIVGG; activation site)”, for which the “detection of MASP-2 activity” value with MASP-2 [2] is reported as “can be detected”. Moreover, the “activity in normal (A/A) serum (slope of A405 versus time squared)” value in the test with MBL-MASP complexes is listed as “dose dependent activity”.

These data come from US7811771B2, “Method for the functional determination of mannan-binding-lectin associated serine proteases (MASPs) and complexes thereof” (Nederlandse Organisatie voor …, priority 2004, dated 2010).
